Molecular target: T1, HCV-NS5b (Hepatitis C virus genotype 1b, UniProt Q9WMX2)
T1 construct: (His)6 (C); made in house; host or cells: XL-1 cells (E. coli), IPTG-inducible plasmid, nickel-NTA purification
Experiment: HCV-NS5b enzyme assay (incorporation of radiolabeled UTP)
Assay type: biochemical
Details: for inhibition at 33 µM: enzyme inhibition at compound concentration of 33 uM; for inhibition at 100 µM: read-out: % inh@100, enzyme inhibition at compound concentration of 100 uM
Method in brief: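 His6-tagged NS5b lacking the C-terminal 21 residues, expressed in XL-1 and Ni-NTA purified. Reaction at pH 7.5 with 5 mM MgCl2, 10 μM each NTP including [3H]-UTP and biotinylated HCV heteropolymeric template, 2 h at 37° C; SPA read-out; % inhibition at 100 and 33 uM versus no-compound control, background subtracted.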

SMILES	inhibition at 33 µM [%]	inhibition at 100 µM [%]
CN(C)CCNC(=O)c1ccc(-c2ccc(Cl)cc2)c(-c2ccc3cc(-c4nc5cc(C(=O)O)ccc5n4C4CCCCC4)ccc3n2)c1 [Compound 491, 2-{2-[4′-Chloro-4-(2-dimethylamino-ethylcarbamoyl)-biphen-2-yl]-quinolin-6-yl}-1-cyclohexyl-1H-benzoimidazole-5-carboxylic acid]	98.3	100
O=C(O)c1ccc2c(c1)nc(-c1ccc3nc(-c4ccc(Oc5ccc(Cl)cc5)cc4Cl)ccc3c1)n2C1CCCCC1 [Compound 492, 2-{2-[2-chloro-4-(4-chloro-phenoxy)-phenyl]-quinolin-6-yl}-1-cyclohexyl-1H-benzoimidazole-5-carboxylic acid]	99.2	100
COc1ccc2occ(-c3ccc4cc(-c5nc6cc(C(=O)O)ccc6n5C5CCCCC5)ccc4n3)c2c1 [Compound 493, 1-cyclohexyl-2-[2-(5-methoxy-benzofuran-3-yl)-quinolin-6-yl]-1H-benzoimidazole-5-carboxylic acid]	101	100
CCOc1cc(-c2ccccc2)nc2ccc(-c3nc4cc(C(=O)O)ccc4n3C3CCCCC3)cc12 [Compound 494, 1-cyclohexyl-2-(4-ethoxy-2-phenyl-quinolin-6-yl)-1H-benzoimidazole-5-carboxylic acid]	94.8	99.2
COc1cc(OC)cc(-c2ccc3cc(-c4nc5cc(C(=O)O)ccc5n4C4CCCCC4)ccc3n2)c1 [Compound 495, 1-cyclohexyl-2-[2-(3,5-dimethoxy-phenyl)-quinolin-6-yl]-1H-benzoimidazole-5-carboxylic acid]	99.8	101
O=C(O)c1ccc2c(c1)nc(-c1ccc3nc(-c4ccccc4)cc(Oc4ccccc4)c3c1)n2C1CCCCC1 [Compound 496, 1-cyclohexyl-2-(4-phenoxy-2-phenyl-quinolin-6-yl)-1H-benzoimidazole-5-carboxylic acid]	101	101
CC(NC(=O)c1ccc2cc(-c3nc4cc(C(=O)O)ccc4n3C3CCCCC3)ccc2n1)C(N)=O (stereo not drawn) [Compound 497, 2-[2-(1-Carbamoylethylcarbamoyl)quinolin-6-yl]-1-cyclohexyl-1H-benzimidazole-5-carboxylic acid]	65.5	88.5
Cc1cc(-c2ccccc2)nc2ccc(-c3nc4cc(C(=O)O)ccc4n3C3CCCCC3)cc12 [Compound 498, 1-Cyclohexyl-2-(4-methyl-2-phenyl-quinolin-6-yl)-1H-benzoimidazole-5-carboxylic acid]	98.5	100
COc1ccc(-c2ccccc2)c(-c2ccc3cc(-c4nc5cc(C(=O)O)ccc5n4C4CCCCC4)ccc3n2)c1 [Compound 499, 1-Cyclohexyl-2-[2-(4-methoxy-biphen-2-yl)-quinolin-6-yl]-1H-benzoimidazole-5-carboxylic acid]	101	99.7
O=C(O)c1ccc2c(c1)nc(-c1ccc3nc(-c4cc(O)ccc4-c4ccc(Cl)cc4)ccc3c1)n2C1CCCCC1 [Compound 500, 2-[2-(4′-Chloro-4-hydroxy-biphen-2-yl)-quinolin-6-yl]-1-cyclohexyl-1H-benzoimidazole-5-carboxylic acid]	101	101
CC(=O)Nc1ccc(-c2ccc3cc(-c4nc5cc(C(=O)O)ccc5n4C4CCCCC4)ccc3n2)cc1 [Compound 501, 2-[2-(4-acetylamino-phenyl)-quinolin-6-yl]-1-cyclohexyl-1H-benzoimidazole-5-carboxylic acid]	90.6	96.8
CC1(C)C(CC(=O)O)CC1c1ccc2cc(-c3nc4cc(C(=O)O)ccc4n3C3CCCCC3)ccc2n1 (stereo not drawn) [Compound 502, 2-[2-(3-carboxymethyl-2,2-dimethyl-cyclobutyl)-quinolin-6-yl]-1-cyclohexyl-1H-benzoimidazole-5-carboxylic acid]	99	100
O=C(O)c1ccc2c(c1)nc(-c1ccc3nc(-c4cccc(OCC(=O)N5CCCC5)c4)ccc3c1)n2C1CCCCC1 [Compound 503, 1-cyclohexyl-2-{2-[3-(2-oxo-2-pyrrolidin-1-yl-ethoxy)-phenyl]-quinolin-6-yl}-1H-benzoimidazole-5-carboxylic acid]	95.8	97
CN(C)CCNC(=O)c1ccc(-c2ccccc2)c(-c2ccc3cc(-c4nc5cc(C(=O)O)ccc5n4C4CCCCC4)ccc3n2)c1 [Compound 504, 1-Cyclohexyl-2-{2-[4-(2-dimethylamino-ethylcarbamoyl)-biphen-2-yl]-quinolin-6-yl}-1H-benzoimidazole-5-carboxylic acid]	98.3	100
Cc1oc(-c2ccc(Cl)cc2)cc1-c1ccc2cc(-c3nc4cc(C(=O)O)ccc4n3C3CCCCC3)ccc2n1 [Compound 505, 2-{2-[5-(4-chloro-phenyl)-2-methyl-furan-3-yl]-quinolin-6-yl}-1-cyclohexyl-1H-benzoimidazole-5-carboxylic acid]	99.7	102
CCOCCOc1ccc(-c2ccc(Cl)cc2)c(-c2ccc3cc(-c4nc5cc(C(=O)O)ccc5n4C4CCCCC4)ccc3n2)c1 [Compound 507, 2-{2-[4′-Chloro-4-(2-ethoxy-ethoxy)-biphen-2-yl]-quinolin-6-yl}-1-cyclohexyl-1H-benzoimidazole-5-carboxylic acid]	101	101
O=C(O)c1ccc2c(c1)nc(-c1ccc3nc(-c4ccc(Cl)c(Cl)c4)ccc3c1)n2C1CCCCC1 [Compound 508, 1-cyclohexyl-2-[2-(3,4-dichloro-phenyl)-quinolin-6-yl]-1H-benzoimidazole-5-carboxylic acid]	98.9	98.9
O=C(O)c1ccc2c(c1)nc(-c1ccc3nc(-c4ccccc4)cc(Oc4ccc5ccc(O)cc5c4)c3c1)n2C1CCCCC1 [Compound 509, 1-cyclohexyl-2-[4-(7-hydroxy-naphthalen-2-yloxy)-2-phenyl-quinolin-6-yl]-1H-benzoimidazole-5-carboxylic acid]	100	101
O=C(O)c1ccc2c(c1)nc(-c1ccc3nc(C(=O)Nc4ccc(Cl)cc4)ccc3c1)n2C1CCCCC1 [Compound 510, 2-[2-(4-Chlorophenylcarbamoyl)quinolin-6-yl]-1-cyclohexyl-1H-benzimidazole-5-carboxylic acid]	99.5	100
CC(C)[C@H](NC(=O)c1ccc2cc(-c3nc4cc(C(=O)O)ccc4n3C3CCCCC3)ccc2n1)C(N)=O [Compound 511, 2-[2-(1-Carbamoyl-2-methylpropylcarbamoyl)quinolin-6-yl]-1-cyclohexyl-1H-benzimidazole-5-carboxylic acid]	78.4	95
C[C@@H](O)[C@H](NC(=O)c1ccc2c(c1)nc(-c1ccc3nc(-c4ccccc4)cnc3c1)n2C1CCCCC1)C(=O)O [Compound 512, 2-{[1-Cyclohexyl-2-(2-phenyl-quinoxalin-6-yl)-1H-benzoimidazole-5-carbonyl]-amino}-3-hydroxy-butyric acid]	78.9	97.9
